# Legend:
# GluA1 AMPA-receptors = test: Synaptic surface expression of GluA1 AMPA-receptors in hippocampal neurons; assay type: cell-based, rat; conditions: 5 μM Nitarsone with 500 nM Aβ1-42, 48 h
# Procedure: Hippocampal and cortical cultures were prepared from Wistar rat embryos (E18) of mixed sex as described previously (Spilker et al., 2016). Briefly, dissected were digested for 15 min with trypsin at 37° C. Neurons were plated on plastic 12-well dishes (Greiner) on glass coverslips coated with poly-L-lysine (Sigma-Aldrich) at a density of 60 000 cells/well in DMEM medium (Gibco, Thermo Fisher Scientific) supplemented with 10% FCS, 1× penicillin/streptomycin, and 2 mM glutamine. After 1 h incubation (at the 37° C., 5% CO2, 95% humidity) cells were kept in BrainPhys medium supplemented with 1% SM1 (Stemmcell Technologies), 0.5 mM Glutamine (Gibco) at 37° C., 5% CO2 and 95% humidity. […]
# For quantitation of nuclear staining intensity (pCREB or CREB) somatic regions were sequentially scanned using the 63× objective (Leica) in both: Leica TCS SP8-STED and Leica TCS SP5 systems. […] Unprocessed images were analysed using Fiji/ImageJ software (Schindelin et al., 2012). For visualization of the quantified channel a fire look-up table (LUT) was used. Synaptic density was quantified in secondary dendrites using Fiji/ImageJ (Schindelin et al., 2012). […] Intensity of the GluA1 channel was measured in ROIs defined by a Shank3 mask as a readout for surface AMPAR expression.
# [1] = system: hippocampal primary neurons; test: Whole-cell voltage-clamp recording of mEPSCs; assay type: cell-based, rat
# TBA2.1 and 5×FAD mice [2] = test: Acute hippocampal slices, CA1-LTP recordings; assay type: ex vivo, mouse; conditions: for basal synaptic transmission: bath application
# Procedure: The 350 μm thick hippocampal slices were prepared according to a previously described protocol (Grochowska et al., 2017). Briefly, hippocampal slices were incubated in bubbling 95% 02, 5% CO2 ASCF solution for 2 h at 31+/−1° C. Field excitatory postsynaptic potentials (fEPSPs) were measured in stratum radiatum after stimulation of CA1 Schaffer collateral fibers with ACSF glass capillary microelectrodes (3-5 MΩ). fEPSPs were amplified by Extracellular Amplifier (EXT-02B, npi, Germany) and digitized at a sample frequency of 5 kHz by Digidata 1201 plus AD/Da converter (CED, UK). The strength of stimuli was adjusted to 25-35% of the maximum fEPSP slope values. Single stimuli were applied at 0.0333 Hz and averaged every 5 min. Stable baseline recordings were followed by tetanisation with 3×1 s stimulus trains at 100 Hz with a 10 min inter-train interval.
# (§1) . For TBA2.1 mice (both sexes), treatment started at the age of 4 weeks. The animals were group housed and force fed for 4 weeks. […] Treatment in 5×FAD male mice started at the age of 12 weeks. Here, animals were single housed right away and given a choice between voluntary and forced feeding. […] During the course of the 7th week of treatment, animals were either subjected to perfusion to obtain their brains for subsequent immunohistochemistry or they were culled to obtained native brains for electrophysiological recordings.
# TBA2.1 and 5×FAD mice [3] = test: Y-maze object recognition short-term memory task; assay type: in vivo, mouse; conditions: 3 h between training and test, versus vehicle
# Source text: as §1
# Y-maze Object Recognition short-term memory task was performed according to (Creighton et al., 2019). During training session, two identical objects (3D printed rectangle) were placed at the end of arms B and C and the animal was left to explore both objects for 10 min. In order to assess short-term memory, retrieval performance was tested 3 h after training with one of the familiar objects replaced by a novel one (wooden cube). The mice were placed in the arena, and had 5 min to explore both objects. During both sessions the time animals explored the objects was scored, and a discrimination index was calculated, in the same manner as for the novel object recognition test.
# TBA2.1 and 5×FAD mice [4] = test: Amyloid load (amyloid-β positive puncta) in CA1 after oral Nitarsone; assay type: in vivo, mouse
# Procedure: Animals were anesthetized with ketamine/xylazine (Medistar) and transcardially perfused with 0.9% saline followed by 4% PFA. The brains were post-fixed in 4% PFA in PBS overnight, followed by immersion in 0.5 M sucrose for 24 h and then 1M sucrose for another 1 to 2 days or until the brains were sunken down. The brains were snap-frozen and cut into 35 μm thick coronal cryosections (Leica CM3050S, Leica-Microsystems). The sections were blocked in a buffer (0.3% TX-100, 10% NGS in PBS) for 30 min at RT, and incubated with primary antibodies diluted in the blocking solution, overnight at 4° C. Secondary antibodies were applied for 2 h at RT. Sections were counterstained with DAPI and mounted in Mowiol 4-88 (Merck Chemicals). For the detection of Aβ, the heat-based antigen retrieval method was used. […]
# All quantifications were done within the distal CA1 region of the hippocampus. […] CREB and pCREB immunoreactivity of every single nucleus in a 100 μm stretch was measured in arbitrary units of pixel intensity. […] The neuronal loss was quantified based on NeuN staining (the number of neurons/CA1 length). For the quantification of microglia and astrocytes the number of cells based on overlaid DAPI and Iba-1 or GFAP signal was quantified within the rectangular ROI. Aβ plaques were counted in the region where the neuronal loss was quantified.
# pCREB = pCREB in motor neurons differentiated from hiPSC (ALS model); assay type: cell-based, human; conditions: hiPSC-derived motor neurons, treated at day in vitro 56
compound,measurement,setting,value
"O=[N+]([O-])c1ccc([As](=O)(O)O)cc1 [Nitarsone, (4-nitrophenyl) arsonic acid]",downscaling of synaptic surface expression of GluA1 AMPA-receptors,GluA1 AMPA-receptors,significantly attenuated
same,mEPSC amplitude,"[1]; co-application of 5 µM Nitarsone with 500 nM Aβ1-42, 48 h",restored mEPSC amplitude
same,mEPSC amplitude and frequency,"[1]; drug alone, 5 µM, 48 h",no effect on both measures
same,basal synaptic transmission,TBA2.1 and 5×FAD mice [2]; 5×FAD mice,not affected
same,basal synaptic transmission,TBA2.1 and 5×FAD mice [2]; TBA2.1 mice,not affected
same,"late-phase LTP, fEPSP slope in the last 30 minutes of recordings","TBA2.1 and 5×FAD mice [2]; slices of Nitarsone-fed 5×FAD mice, postnatal week 19",rescued
same,"late-phase LTP, fEPSP slope in the last 30 minutes of recordings","TBA2.1 and 5×FAD mice [2]; slices of Nitarsone-fed TBA2.1 mice, postnatal week 11",rescued
same,"discrimination performance, Y-maze object recognition",TBA2.1 and 5×FAD mice [3]; 5×FAD mice,improved discrimination performance
same,"discrimination performance, Y-maze object recognition",TBA2.1 and 5×FAD mice [3]; TBA2.1 mice,improved discrimination performance
same,amyloid load,TBA2.1 and 5×FAD mice [4]; 5×FAD mice,did not detect any effects
same,amyloid load,TBA2.1 and 5×FAD mice [4]; TBA2.1 mice,did not detect any effects
same,impairment of CREB function,pCREB,rescues the impairment of CREB function

# From US20250295627A1 (Leibniz-Institut Fuer Neurobiologie, priority 2022, published 2025)
